Measured values from patent US20260216229A1, “PROGRAMMABLE DNA PROTEOLYSIS TARGET CHIMERAS AND METHODS OF THEIR USE” (ARIZONA BOARD OF REGENTS ON BEHALF OF ARIZONA STATE …, priority 2023, published 2026).
Values belong to the molecule of their own block, whether it stands above or below them.

Molecular target: T1, CDK6 (Homo sapiens, UniProt Q00534)
T1 construct: Western blot analysis of CDK6 degradation in U251 cells treated with distance-based DNA-PROTACs; endogenous in cells; host or cells: U-251 MG (U251) glioblastoma cells
T1 sequence (Q00534 whole entry): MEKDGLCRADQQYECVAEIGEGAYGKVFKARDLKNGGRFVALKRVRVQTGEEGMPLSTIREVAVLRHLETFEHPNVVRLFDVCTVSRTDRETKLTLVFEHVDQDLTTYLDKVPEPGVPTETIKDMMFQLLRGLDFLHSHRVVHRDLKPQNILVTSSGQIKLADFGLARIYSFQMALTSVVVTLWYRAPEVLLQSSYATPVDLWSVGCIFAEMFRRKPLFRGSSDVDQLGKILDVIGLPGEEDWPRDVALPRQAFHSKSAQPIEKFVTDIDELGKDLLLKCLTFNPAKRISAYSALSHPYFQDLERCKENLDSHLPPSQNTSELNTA
Assay: Western blot of CDK6 degradation in U251 cells transfected with DNA-PROTACs
Assay type: cell-based
Details: for CDK6 protein degradation (Western blot): 14-hour treatment
Experimental: U-251 MG Glioblastoma Cell Line was grown in Dulbecco's Modified Eagles Medium (DMEM) containing 10% heat inactivated fetal bovine serum (FBS), streptomycin (5 μg/mL) and 5 U/mL penicillin 95 U/mL). All cell lines were maintained, and cell culture experiments were carried out in humidified incubators at 37° C. and 5% CO2 supplementation.
One day prior to DNA-PROTACs transfection, cells were propagated into 6 cm cell culture dishes containing appropriate complete growth medium. Prior to transfection, complete medium was replaced with transfection medium (5% FBS, no Penstrep). DNA-PROTACs transfection was performed using lipofectamine 3000 reagent according to the protocols provided by the manufacture. All transfections were carried out in 6-cm dishes with 3 mL of media and concentrations of DNA-PROTACs were calculated according to this volume (3 mL). Briefly, for 50 nM concentration, 5 μL from a 30 µM DNA-PROTACs stock and 12 μL p3000 reagent was added to a tube containing 125 μL of OPTIM-MEM and 8 μL of Lipofectamine 3000 reagent was added to a separate tube containing 125 μL of OPTIM-MEM. Two tubes were incubated for 5 minutes at room temperature and DNA-PROTACs containing OPTI-MEM was then slowly added to the second tube with lipo3000. The solution in the tube was mixed well by pipetting up and down several times. After incubating for 15-20 minutes at room temperature, 250 μL of DNA-PROTACs-lipofectamine complex was added drop wise onto cells containing the transfection medium. Transfection medium was mixed well before transferring the plate into the incubator. After appropriate time, cells were either harvested or replaced with fresh medium and incubated for desired time point prior to harvesting. For proteasome inhibition assay, 5 μM of MG-132 was incubated with cells for 2 h prior to transfection of DNA-PROTACs. Then, cells were incubated for another 12 h before lysing cells. Cell lysates were prepared by incubating cells in RIPA lysis buffer (25 mM Tris pH 7.6, 150 mM NaCl, 1% NP40, 1% deoxycholate, 0.1% SDS, 1× protease inhibitor cocktail from Roche and 1 mM of PMSF) on ice for 30 minutes and cell lysate was clarified by centrifugation at high speed (15 000 rpm) for 15 minutes. Clear supernatant was collected for further experiments.
Protein concentration in all the cell lysates were measured by BCA protein assay kit and equal amounts from each lysate were mixed with 4×loading dye and boiled for 5 minutes followed by 2 minutes centrifugation prior to loading into SDS-PAGE gel. Next proteins on the SDS-PAGE gel were transferred to a Nitrocellulose membrane by western blotting and the membrane was blocked with 5% milk in TBST (0.05% Tween 20) for 1 h. Primary antibodies (all Abcam antibodies were diluted 1:5000) were prepared in TBST with 2.5% milk and membranes were incubated overnight at 4° C. On the following day, membrane was washes for 15 minutes (Incubate for three times, 5 minutes each) and appropriate secondary antibodies (1:5000) were prepared in TBST and incubated with the membrane for 1 h at room temperature (RT). Membrane was washed for 15 minutes with TBST (incubate for three times, […]) prior to imaging.
The degradation efficiency of various DNA-PROTACs was evaluated through their transfection into U251 cells, conducted simultaneously to ensure uniform experimental conditions. A double-stranded DNA sequence without any ligand was utilized as a negative control, providing a baseline for comparison. Following a 14-hour treatment period, a duration selected based on preliminary time-course studies, the cells were harvested using trypsin digestion. The lysates obtained were then subjected to SDS-PAGE, followed by Western blot analysis to assess protein degradation. […] This finding highlights the efficacy of DNA-PROTAC V02 in targeting and reducing CDK6 protein levels. In comparison, DNA-PROTAC Versions 03 and 04 also facilitated protein degradation, albeit with varying degrees of efficiency. […]

CDK6 protein levels (Western blot) (160 nM treatment): discernible reduction in protein levels
Molecule: CC(=O)c1c(C)c2cnc(Nc3ccc(N4CCN(CCOCCOCCOCCNC(=O)COc5cccc6c5C(=O)N(C5CCC(=O)NC5=O)C6=O)CC4)cn3)nc2n(C2CCCC2)c1=O (centres unmarked) [BSJ-03-123, reference compound]

Molecule: A-minor-00: angular-series DNA duplex of E3-i strand SEQ ID NO 3 and POI-i strand SEQ ID NO 5 (chain 1 ACTCCATCTANTTCTACGCCA; chain 2 TGGCGTAGAATAGANTGGAGT; pomalidomide and POI ligand conjugated; modified_base 1 OTHER; Nucleotide with phosphorothioate linkage; modified_base 2 OTHER; modified_base 3 OTHER; misc_difference 11 E3 ligase attached to 3-Dimethoxytrityloxy-2-(3-(fluorenylmethoxycarbonylamino)propanamido)propyl-1-O-(2-cyanoethyl)-(N,N-diisopropyl)-phosphoramidite modified adenosine, cytidine, thymi; m)
CDK6 protein degradation (Western blot) (concentration not given): marginal CDK6 degradation

Molecule: Version 05: DNA duplex of E3-i strand SEQ ID NO 18 and POI-i strand SEQ ID NO 20; largest ligand distance of approximately 60.2 Å (chain 1 ANCTCCATCTATTCTACGCCA; chain 2 TNGGCGTAGAATAGATGGAGT; E3 and POI ligands conjugated; modified_base 1 OTHER; Nucleotide with phosphorothioate linkage; misc_difference 2 E3 ligase attached to 3-Dimethoxytrityloxy-2-(3-(fluorenylmethoxycarbonylamino)propanamido)propyl-1-O-(2-cyanoethyl)-(N,N-diisopropyl)-phosphoramidite modified adenosine, cytidine, thymidine, guanosine, unknown or other nucleotide with phosphorothioate linkage; modified_base 3 OTHER; Nucleotide with phosphorothioate; misc_difference 2 Protein of interest attached to 3-Dimethoxytrityloxy-2-(3-(fluorenylmethoxycarbonylamino)propanamido)propyl-1-O-()
CDK6 protein degradation (Western blot) (50 nM and 100 nM, vs ligand-free dsDNA control): did not exhibit any discernible protein degradation

Molecule: Version 03: DNA duplex of E3-i strand SEQ ID NO 3 and POI-i strand SEQ ID NO 5 (chain 1 ACTCCATCTANTTCTACGCCA; chain 2 TGGCGTAGAATAGANTGGAGT; E3 and POI ligands conjugated; modified_base 1 OTHER; Nucleotide with phosphorothioate linkage; modified_base 2 OTHER; modified_base 3 OTHER; misc_difference 11 E3 ligase attached to 3-Dimethoxytrityloxy-2-(3-(fluorenylmethoxycarbonylamino)propanamido)propyl-1-O-(2-cyanoethyl)-(N,N-diisopropyl)-phosphoramidite modified adenosine, cytidine, thymi; m)
CDK6 protein degradation (Western blot) (100 nM): substantially reduce CDK6 protein levels

Molecule: A-minor-03: angular-series DNA duplex of E3-i strand SEQ ID NO 3 and POI-i strand SEQ ID NO 23 (chain 1 ACTCCATCTANTTCTACGCCA; chain 2 TGGCGTAGAATNAGATGGAGT; E3 and POI ligands conjugated; modified_base 1 OTHER; Nucleotide with phosphorothioate linkage; modified_base 2 OTHER; modified_base 3 OTHER; misc_difference 11 E3 ligase attached to 3-Dimethoxytrityloxy-2-(3-(fluorenylmethoxycarbonylamino)propanamido)propyl-1-O-(2-cyanoethyl)-(N,N-diisopropyl)-phosphoramidite modified adenosine, cytidine, thymi; m)
concentration at which significant CDK6 degradation begins (14 hours, angular series): 20 nM

Molecule: A-minor-02: angular-series DNA duplex of E3-i strand SEQ ID NO 3 and POI-i strand SEQ ID NO 22 (chain 1 ACTCCATCTANTTCTACGCCA; chain 2 TGGCGTAGAATANGATGGAGT; E3 and POI ligands conjugated; modified_base 1 OTHER; Nucleotide with phosphorothioate linkage; modified_base 2 OTHER; modified_base 3 OTHER; misc_difference 11 E3 ligase attached to 3-Dimethoxytrityloxy-2-(3-(fluorenylmethoxycarbonylamino)propanamido)propyl-1-O-(2-cyanoethyl)-(N,N-diisopropyl)-phosphoramidite modified adenosine, cytidine, thymi; m)
CDK6 protein degradation (Western blot) (100 nM): substantial degradation

Molecule: A-minor-01: angular-series DNA duplex of E3-i strand SEQ ID NO 3 and POI-i strand SEQ ID NO 21 (chain 1 ACTCCATCTANTTCTACGCCA; chain 2 TGGCGTAGAATAGNATGGAGT; E3 and POI ligands conjugated; modified_base 1 OTHER; Nucleotide with phosphorothioate linkage; modified_base 2 OTHER; modified_base 3 OTHER; misc_difference 11 E3 ligase attached to 3-Dimethoxytrityloxy-2-(3-(fluorenylmethoxycarbonylamino)propanamido)propyl-1-O-(2-cyanoethyl)-(N,N-diisopropyl)-phosphoramidite modified adenosine, cytidine, thymi; m)
CDK6 protein degradation (Western blot) (100 nM): substantial degradation

Molecule: Version 04: DNA duplex of E3-i strand SEQ ID NO 3 and POI-i strand SEQ ID NO 6 (chain 1 ACTCCATCTANTTCTACGCCA; chain 2 TGGCNGTAGAATAGATGGAGT; E3 and POI ligands conjugated; modified_base 1 OTHER; Nucleotide with phosphorothioate linkage; modified_base 2 OTHER; modified_base 3 OTHER; misc_difference 11 E3 ligase attached to 3-Dimethoxytrityloxy-2-(3-(fluorenylmethoxycarbonylamino)propanamido)propyl-1-O-(2-cyanoethyl)-(N,N-diisopropyl)-phosphoramidite modified adenosine, cytidine, thymi; m)
CDK6 protein degradation (Western blot) (50 nM): more pronounced reduction in protein levels
